According to patent publication US4257941A, “Polycyclic nitrogen-containing compounds” (BASF Aktiengesellschaft, priority 1976, dated 1981):

Legend:
wheat = assay: Growth height of wheat, greenhouse (Example 7); format: in vivo, wheat (Opal variety); conditions: for Plant height relative: control 100
Source text: (§1) In the greenhouse, the four cereals wheat ("Opal" variety), rye ("Petkuser"), barley ("Villa") and oats ("Flamingskrone") were sown in plastic dishes 11.5 cm in diameter in a sandy loam adequately supplied with nutrients. The active ingredients were applied at various rates to the soil and to the leaves. When applied to the soil, the active ingredient were sprayed onto the surface of the soil on the day of sowing; in the case of leaf treatment, the leaves were sprayed in the usual manner at a growth height of the plants of 10 cm. During the 18 day growth period, the treated plants grew much more slowly than the untreated control, a fact later confirmed by measurements of the stem length. Measurements were taken of 100 plants from each series.
(§2) The prior art agent used for comparison purposes was N-2-chloroethyl-N,N,N-trimethylammonium chloride (CCC; German Printed Application DAS No. 1,294,734).

rye = assay: Growth height of rye, greenhouse (Example 8); format: in vivo, rye (Petkuser); conditions: for Plant height relative: control 100
Source text: as §1, §2

barley = assay: Growth height of barley, greenhouse (Example 9); format: in vivo, barley (Villa); conditions: for Plant height relative: control 100
Source text: as §1, §2

oats = assay: Growth height of oats, greenhouse (Example 10); format: in vivo, oats (Flamingskrone); conditions: for Plant height relative: control 100
Source text: as §1, §2

lawns = assay: Long-term action on lawns (Example 14); format: in vivo; conditions: for First cutting, green weight relative / First cutting, growth height relative / Second cutting, green weight relative / Second cutting, growth height relative / Third cutting, green weight relative: control 100

## Clc1ccc(N2N=NC3C4CC(C5N=NC45)C32)cc1 (stereo not shown) [drawing 344]
wheat; soil, 0.5 kg/ha
  Plant height: 28.5 cm
  Plant height relative: 91.9
wheat; soil, 1.0 kg/ha
  Plant height: 23.0 cm
  Plant height relative: 74.2
wheat; soil, 2.0 kg/ha
  Plant height: 20.5 cm
  Plant height relative: 66.1
wheat; soil, 6.0 kg/ha
  Plant height: 10.5 cm
  Plant height relative: 33.9

## Brc1ccc(N2N=NC3C4CC(C5N=NC45)C32)cc1 (stereo not shown) [drawing 345]
wheat; soil, 0.5 kg/ha
  Plant height: 27.5 cm
  Plant height relative: 88.7
wheat; soil, 1.0 kg/ha
  Plant height: 22.5 cm
  Plant height relative: 72.6
wheat; soil, 2.0 kg/ha
  Plant height: 15.5 cm
  Plant height relative: 50.0
wheat; soil, 6.0 kg/ha
  Plant height: 11.5 cm
  Plant height relative: 31.7

## Clc1ccc(N2N=NC3C4CC(C5N=NC45)C32)cc1 (stereo not shown) [drawing 346]
wheat; leaf, 0.125 kg/ha
  Plant height: 24.0 cm
  Plant height relative: 80.0
wheat; leaf, 0.5 kg/ha
  Plant height: 22.0 cm
  Plant height relative: 73.3
wheat; leaf, 1.0 kg/ha
  Plant height: 20.0 cm
  Plant height relative: 66.6
wheat; leaf, 2.0 kg/ha
  Plant height: 19.0 cm
  Plant height relative: 63.3
wheat; leaf, 4.0 kg/ha
  Plant height: 17.5 cm
  Plant height relative: 58.3

## Brc1ccc(N2N=NC3C4CC(C5N=NC45)C32)cc1 (stereo not shown) [drawing 347]
wheat; leaf, 0.125 kg/ha
  Plant height: 25.0 cm
  Plant height relative: 83.3
wheat; leaf, 0.5 kg/ha
  Plant height: 23.5 cm
  Plant height relative: 78.3
wheat; leaf, 1.0 kg/ha
  Plant height: 21.0 cm
  Plant height relative: 70.0
wheat; leaf, 2.0 kg/ha
  Plant height: 21.5 cm
  Plant height relative: 71.7
wheat; leaf, 4.0 kg/ha
  Plant height: 20.0 cm
  Plant height relative: 66.7

## Clc1ccc(N2N=NC3C4CC(C5N=NC45)C32)cc1 (stereo not shown) [drawing 348]
rye; soil, 0.5 kg/ha
  Plant height: 22.5 cm
  Plant height relative: 77.6
rye; soil, 1.0 kg/ha
  Plant height: 19.0 cm
  Plant height relative: 65.5
rye; soil, 2.0 kg/ha
  Plant height: 13.0 cm
  Plant height relative: 44.8
rye; soil, 6.0 kg/ha
  Plant height: 8.5 cm
  Plant height relative: 29.3

## Brc1ccc(N2N=NC3C4CC(C5N=NC45)C32)cc1 (stereo not shown) [drawing 349]
rye; soil, 0.5 kg/ha
  Plant height: 23.0 cm
  Plant height relative: 79.3
rye; soil, 1.0 kg/ha
  Plant height: 22.5 cm
  Plant height relative: 77.6
rye; soil, 2.0 kg/ha
  Plant height: 19.0 cm
  Plant height relative: 65.5
rye; soil, 6.0 kg/ha
  Plant height: 9.0 cm
  Plant height relative: 31.0

## Clc1ccc(N2N=NC3C4CC(C5N=NC45)C32)cc1 (stereo not shown) [drawing 350]
rye; leaf, 0.125 kg/ha
  Plant height: 24.5 cm
  Plant height relative: 83.1
rye; leaf, 0.5 kg/ha
  Plant height: 20.0 cm
  Plant height relative: 67.8
rye; leaf, 1.0 kg/ha
  Plant height: 18.5 cm
  Plant height relative: 62.7
rye; leaf, 2.0 kg/ha
  Plant height: 17.5 cm
  Plant height relative: 59.3
rye; leaf, 4.0 kg/ha
  Plant height: 16.0 cm
  Plant height relative: 54.2

## Brc1ccc(N2N=NC3C4CC(C5N=NC45)C32)cc1 (stereo not shown) [drawing 351]
rye; leaf, 0.125 kg/ha
  Plant height: 25.0 cm
  Plant height relative: 84.7
rye; leaf, 0.5 kg/ha
  Plant height: 20.5 cm
  Plant height relative: 69.5
rye; leaf, 1.0 kg/ha
  Plant height: 22.0 cm
  Plant height relative: 74.6
rye; leaf, 2.0 kg/ha
  Plant height: 18.0 cm
  Plant height relative: 61.0
rye; leaf, 4.0 kg/ha
  Plant height: 18.5 cm
  Plant height relative: 62.7

## Clc1ccc(N2N=NC3C4CC(C5N=NC45)C32)cc1 (stereo not shown) [drawing 352]
barley; soil, 0.5 kg/ha
  Plant height: 28.0 cm
  Plant height relative: 88.9
barley; soil, 1.0 kg/ha
  Plant height: 28.0 cm
  Plant height relative: 88.9
barley; soil, 2.0 kg/ha
  Plant height: 23.5 cm
  Plant height relative: 74.6
barley; soil, 6.0 kg/ha
  Plant height: 16.5 cm
  Plant height relative: 52.4

## Brc1ccc(N2N=NC3C4CC(C5N=NC45)C32)cc1 (stereo not shown) [drawing 353]
barley; soil, 0.5 kg/ha
  Plant height: 30.5 cm
  Plant height relative: 96.8
barley; soil, 1.0 kg/ha
  Plant height: 29.0 cm
  Plant height relative: 92.1
barley; soil, 2.0 kg/ha
  Plant height: 24.5 cm
  Plant height relative: 77.8
barley; soil, 6.0 kg/ha
  Plant height: 19.0 cm
  Plant height relative: 60.3

## Clc1ccc(N2N=NC3C4CC(C5N=NC45)C32)cc1 (stereo not shown) [drawing 354]
barley; leaf, 0.125 kg/ha
  Plant height: 24.0 cm
  Plant height relative: 80.0
barley; leaf, 0.5 kg/ha
  Plant height: 23.0 cm
  Plant height relative: 76.7
barley; leaf, 1.0 kg/ha
  Plant height: 21.5 cm
  Plant height relative: 71.7
barley; leaf, 2.0 kg/ha
  Plant height: 20.5 cm
  Plant height relative: 68.3
barley; leaf, 4.0 kg/ha
  Plant height: 18.5 cm
  Plant height relative: 61.7

## Brc1ccc(N2N=NC3C4CC(C5N=NC45)C32)cc1 (stereo not shown) [drawing 355]
barley; leaf, 0.125 kg/ha
  Plant height: 25.5 cm
  Plant height relative: 85.0
barley; leaf, 0.5 kg/ha
  Plant height: 23.5 cm
  Plant height relative: 78.3
barley; leaf, 1.0 kg/ha
  Plant height: 22.0 cm
  Plant height relative: 73.3
barley; leaf, 2.0 kg/ha
  Plant height: 20.5 cm
  Plant height relative: 68.3
barley; leaf, 4.0 kg/ha
  Plant height: 20.0 cm
  Plant height relative: 66.7

## Clc1ccc(N2N=NC3C4CC(C5N=NC45)C32)cc1 (stereo not shown) [drawing 356]
oats; soil, 0.5 kg/ha
  Plant height: 25.0 cm
  Plant height relative: 89.3
oats; soil, 1.0 kg/ha
  Plant height: 24.0 cm
  Plant height relative: 85.7
oats; soil, 2.0 kg/ha
  Plant height: 21.0 cm
  Plant height relative: 75.0
oats; soil, 6.0 kg/ha
  Plant height: 15.0 cm
  Plant height relative: 53.6

## Brc1ccc(N2N=NC3C4CC(C5N=NC45)C32)cc1 (stereo not shown) [drawing 357]
oats; soil, 0.5 kg/ha
  Plant height: 28.0 cm
  Plant height relative: 100
oats; soil, 1.0 kg/ha
  Plant height: 26.5 cm
  Plant height relative: 94.6
oats; soil, 2.0 kg/ha
  Plant height: 24.5 cm
  Plant height relative: 87.5
oats; soil, 6.0 kg/ha
  Plant height: 15.5 cm
  Plant height relative: 55.4

## Clc1ccc(N2N=NC3C4CC(C5N=NC45)C32)cc1 (stereo not shown) [drawing 358]
oats; leaf, 0.125 kg/ha
  Plant height: 23.5 cm
  Plant height relative: 83.9
oats; leaf, 0.5 kg/ha
  Plant height: 22.5 cm
  Plant height relative: 80.4
oats; leaf, 1.0 kg/ha
  Plant height: 21.0 cm
  Plant height relative: 75.0
oats; leaf, 2.0 kg/ha
  Plant height: 19.0 cm
  Plant height relative: 67.9
oats; leaf, 4.0 kg/ha
  Plant height: 17.0 cm
  Plant height relative: 60.7

## Brc1ccc(N2N=NC3C4CC(C5N=NC45)C32)cc1 (stereo not shown) [drawing 359]
oats; leaf, 0.125 kg/ha
  Plant height: 25.5 cm
  Plant height relative: 91.1
oats; leaf, 0.5 kg/ha
  Plant height: 25.0 cm
  Plant height relative: 89.3
oats; leaf, 1.0 kg/ha
  Plant height: 22.5 cm
  Plant height relative: 80.4
oats; leaf, 2.0 kg/ha
  Plant height: 22.5 cm
  Plant height relative: 80.4
oats; leaf, 4.0 kg/ha
  Plant height: 22.0 cm
  Plant height relative: 78.6

## c1cc2sncc2cc1N1N=NC2C3CC(C4N=NC34)C21 (stereo not shown) [drawing 382]
lawns; 0.5 kg/ha
  First cutting, green weight: 31.8 g
  First cutting, growth height: 18.5 cm
  Second cutting, green weight: 28.8 g
  Second cutting, growth height: 14.0 cm
  Third cutting, green weight: 15.5 g
  First cutting, green weight relative: 90.1
  First cutting, growth height relative: 102.8
  Second cutting, green weight relative: 107.9
  Second cutting, growth height relative: 95.2
  Third cutting, green weight relative: 102.0
lawns; 1.0 kg/ha
  First cutting, green weight: 27.1 g
  First cutting, growth height: 16.5 cm
  Second cutting, green weight: 25.8 g
  Second cutting, growth height: 13.0 cm
  Third cutting, green weight: 15.3 g
  First cutting, green weight relative: 76.8
  First cutting, growth height relative: 91.7
  Second cutting, green weight relative: 96.6
  Second cutting, growth height relative: 88.4
  Third cutting, green weight relative: 100.7
lawns; 2.0 kg/ha
  First cutting, green weight: 20.3 g
  First cutting, growth height: 14.5 cm
  Second cutting, green weight: 19.1 g
  Second cutting, growth height: 9.0 cm
  Third cutting, green weight: 12.8 g
  First cutting, green weight relative: 57.5
  First cutting, growth height relative: 80.6
  Second cutting, green weight relative: 71.5
  Second cutting, growth height relative: 61.2
  Third cutting, green weight relative: 84.2
lawns; 4.0 kg/ha
  First cutting, green weight: 19.5 g
  First cutting, growth height: 12.5 cm
  Second cutting, green weight: 16.8 g
  Second cutting, growth height: 7.0 cm
  Third cutting, green weight: 12.8 g
  First cutting, green weight relative: 55.2
  First cutting, growth height relative: 69.5
  Second cutting, green weight relative: 62.9
  Second cutting, growth height relative: 47.6
  Third cutting, green weight relative: 84.2
